Data as given in patent US20250135022A1, “METHODS FOR THE USE OF A B7-H3 ANTIBODY-DRUG CONJUGATE IN COMBINATION WITH A PD-1 X CTLA-4 BISPECIFIC MOLECULE” (MACROGENICS, INC., priority 2022, published 2025).

What was measured:
[1] = system: Calu-6 lung cancer cells; test: Anti-tumor activity against subcutaneously implanted Calu-6 xenograft in SCID CES1c-KO mouse model; assay type: in vivo, SCID CES1c-KO mice; design: key to Anti-Tumor Activity: Highly Active: A T/C<10% is considered highly active; Active: a T/C≤42% is the minimum level of anti-tumor activity; Inactive: a T/C value of >42% is inactive
Protocol: In brief, ˜5×10^6 tumor cells (suspended in 1:1 media and MATRIGEL®) were subcutaneously implanted into the flank of female SCID CES1c-KO mice (Charles River Laboratories). When tumors had reached a volume of approximately 50-180 mm^3 (average 105 mm^3) on day 16, the mice were randomized and MGC018 or control vehicle were administered intravenously. In these studies, mice were administered either a single dose (1 mg/kg or 3 mg/kg, QW×1) of MGC018 or a fractionated dose of MGC018 (0.3 mg/kg or 1 mg/kg) once a week for 4 weeks (QW×4W). Vehicle was administered as a control on day 16. Tumors were measured twice weekly by orthogonal measurements with electronic calipers, with tumor volumes calculated as: (length×width×height)/2. The tumor volume (relative to control) was determined (“T/C”). A finding that the tumor volume of treated animals had decreased to ≤5 mm^3 during the study period was considered to denote a Complete Regression (“CR”) and a Partial Regression (“PR”) was defined when tumors were reduced by 50% or greater from day of dosing at any point during the study.

[2] = system: A375.S2 melanoma cells; test: Anti-tumor activity against subcutaneously implanted A375.S2 xenograft in SCID CES1c-KO mouse model; assay type: in vivo, SCID CES1c-KO mice
Protocol: In brief, ˜5×10^6 A375.S2 tumor cells (suspended in 1:1 media and MATRIGEL®) were subcutaneously implanted into the flank of female SCID CES1c-KO mice (Charles River Laboratories). When tumors had reached a volume of approximately 70-255 mm^3 (average 124 mm^3) on day 22, the mice were randomized and MGC018 or control vehicle were administered intravenously. In these studies, mice were administered either a single dose (1 mg/kg or 3 mg/kg, QW×1) of MGC018 or a fractionated dose of MGC018 (0.3 mg/kg or 1 mg/kg) once a week for 4 weeks (QW×4W). Vehicle was administered as a control on day 22. Tumors were measured twice weekly by orthogonal measurements with electronic calipers, with tumor volumes calculated as: (length×width×height)/2. The tumor volume (relative to control) was determined (“T/C”). A finding that the tumor volume of treated animals had decreased to ≤5 mm^3 during the study period was considered to denote a Complete Regression (“CR”) and a Partial Regression (“PR”) was defined when tumors were reduced by 50% or greater from day of dosing at any point during the study.

[3] = system: Calu-6 lung cancer cells; test: Anti-tumor activity against subcutaneously implanted Calu-6 xenograft in CD-1 Nude mouse model; assay type: in vivo, CD-1 Nude mice; design: key to Anti-Tumor Activity: Highly Active: A T/C<10% is considered highly active; Active: a T/C≤42% is the minimum level of anti-tumor activity; Inactive: a T/C value of >42% is inactive
Protocol: In brief, ˜5×10^6 tumor cells (suspended in 1:1 media and MATRIGEL®) were subcutaneously implanted into the flank of female CD-1 Nude mice (homozygous; Charles River Laboratories). When tumors had reached a volume of approximately 100-235 mm3 (average 172 mm^3) on day 21, the mice were randomized and MGC018 or control vehicle were administered intravenously. In these studies, mice were administered either a single dose (12 mg/kg, QW×1) of MGC018 or a fractionated dose of MGC018 (0.3 mg/kg, 1 mg/kg, or 3 mg/kg) once a week for 4 weeks (QW×4W). Vehicle was administered as a control on day 21. Tumors were measured twice weekly by orthogonal measurements with electronic calipers, with tumor volumes calculated as: (length×width×height)/2. The tumor volume (relative to control) was determined (“T/C”). A finding that the tumor volume of treated animals had decreased to ≤5 mm^3 during the study period was considered to denote a Complete Regression (“CR”) and a Partial Regression (“PR”) was defined when tumors were reduced by 50% or greater from day of dosing at any point during the study.

[4] = 0.3 mg/kg, QW × 4W, intravenous
[5] = fractionated 0.3 and 1 mg/kg QW×4W vs single 1 or 3 mg/kg QW×1

MGC018: B7-H3-ADC: Light and Heavy Chain of anti-B7-H3 hmAb-A (SEQ ID NO:19, 20) conjugated via maleimide, valine-citrulline, para-aminobenzyloxycarbonyl linker to seco-DUBA payload
% T/C at Day 50 [1, 4]: 61%
Anti-Tumor Activity [1, 4]: Inactive
CR (complete regression) [1, 4]: 0/6
PR (partial regression) [1, 4]: 0/6
% T/C at Day 50 ([1]; 1 mg/kg, QW × 1, intravenous): 49%
Anti-Tumor Activity ([1]; 1 mg/kg, QW × 1, intravenous): Inactive
CR (complete regression) ([1]; 1 mg/kg, QW × 1, intravenous): 0/6
PR (partial regression) ([1]; 1 mg/kg, QW × 1, intravenous): 0/6
% T/C at Day 50 ([1]; 1 mg/kg, QW × 4W, intravenous): 17%
Anti-Tumor Activity ([1]; 1 mg/kg, QW × 4W, intravenous): Active
CR (complete regression) ([1]; 1 mg/kg, QW × 4W, intravenous): 0/6
PR (partial regression) ([1]; 1 mg/kg, QW × 4W, intravenous): 0/6
% T/C at Day 50 ([1]; 3 mg/kg, QW × 1, intravenous): 25%
Anti-Tumor Activity ([1]; 3 mg/kg, QW × 1, intravenous): Active
CR (complete regression) ([1]; 3 mg/kg, QW × 1, intravenous): 0/6
PR (partial regression) ([1]; 3 mg/kg, QW × 1, intravenous): 0/6
anti-tumor activity of fractionated dose compared with single dose [1, 5]: near equivalent anti-tumor activity
% T/C at Day 53 [2, 4]: 6%
CR (complete regression) [2, 4]: 0/7
PR (partial regression) [2, 4]: 4/7
% T/C at Day 53 ([2]; 1 mg/kg, QW × 1, intravenous): 5%
CR (complete regression) ([2]; 1 mg/kg, QW × 1, intravenous): 0/7
PR (partial regression) ([2]; 1 mg/kg, QW × 1, intravenous): 7/7
% T/C at Day 53 ([2]; 1 mg/kg, QW × 4W, intravenous): 1%
CR (complete regression) ([2]; 1 mg/kg, QW × 4W, intravenous): 6/7
PR (partial regression) ([2]; 1 mg/kg, QW × 4W, intravenous): 7/7
% T/C at Day 53 ([2]; 3 mg/kg, QW × 1, intravenous): 1%
CR (complete regression) ([2]; 3 mg/kg, QW × 1, intravenous): 7/7
PR (partial regression) ([2]; 3 mg/kg, QW × 1, intravenous): 7/7
anti-tumor activity of fractionated dose compared with single dose [2, 5]: near equivalent anti-tumor activity
% T/C at Day 44 [3, 4]: 78%
Anti-Tumor Activity [3, 4]: Active
CR (complete regression) [3, 4]: 0/7
PR (partial regression) [3, 4]: 0/7
% T/C at Day 44 ([3]; 1 mg/kg, QW × 4W, intravenous): 30%
Anti-Tumor Activity ([3]; 1 mg/kg, QW × 4W, intravenous): Active
CR (complete regression) ([3]; 1 mg/kg, QW × 4W, intravenous): 0/7
PR (partial regression) ([3]; 1 mg/kg, QW × 4W, intravenous): 0/7
% T/C at Day 44 ([3]; 3 mg/kg, QW × 4W, intravenous): 17%
Anti-Tumor Activity ([3]; 3 mg/kg, QW × 4W, intravenous): Active
CR (complete regression) ([3]; 3 mg/kg, QW × 4W, intravenous): 0/7
PR (partial regression) ([3]; 3 mg/kg, QW × 4W, intravenous): 2/7
% T/C at Day 44 ([3]; 12 mg/kg, QW × 1, intravenous): 6%
CR (complete regression) ([3]; 12 mg/kg, QW × 1, intravenous): 0/7
PR (partial regression) ([3]; 12 mg/kg, QW × 1, intravenous): 2/7
anti-tumor activity of fractionated dose compared with single dose ([3]; fractionated 0.3, 1 and 3 mg/kg QW×4W vs single 12 mg/kg QW×1): near equivalent anti-tumor activity
